Results reported in the NIST ThermoML archive (doi:10.1016/j.fluid.2005.05.023).
± gives the expanded uncertainty stated by the source.

Assay: xn = mol fraction of the nth substance listed
Details: Liquid, Vibrating tube method, x1 = 1

CCO [ethanol] + Cc1ccccc1
mass density [kg/m3]
Details	100 kPa	5000 kPa	10000 kPa	15000 kPa	20000 kPa	25000 kPa	30000 kPa	35000 kPa	40000 kPa	45000 kPa
283.15 K	798 ± 0.2	802 ± 0.3	805.9 ± 0.3	809.5 ± 0.3	813 ± 0.3	816.4 ± 0.3	819.7 ± 0.4	822.8 ± 0.4	825.9 ± 0.4	828.8 ± 0.4
293.15 K	789.5 ± 0.2	793.7 ± 0.3	797.8 ± 0.3	801.6 ± 0.3	805.3 ± 0.3	808.9 ± 0.3	812.3 ± 0.4	815.6 ± 0.4	818.7 ± 0.4	821.8 ± 0.4
303.15 K	780.9 ± 0.2	785.3 ± 0.3	789.6 ± 0.3	793.7 ± 0.3	797.5 ± 0.3	801.3 ± 0.3	804.8 ± 0.4	808.2 ± 0.4	811.5 ± 0.4	814.7 ± 0.4
313.15 K	772.1 ± 0.2	776.8 ± 0.3	781.3 ± 0.3	785.6 ± 0.3	789.6 ± 0.3	793.5 ± 0.4	797.2 ± 0.4	800.8 ± 0.4	804.2 ± 0.4	807.6 ± 0.5
323.15 K	763.3 ± 0.2	768.3 ± 0.3	773 ± 0.3	777.6 ± 0.3	781.8 ± 0.3	785.9 ± 0.4	789.7 ± 0.4	793.5 ± 0.4	797.1 ± 0.4	800.5 ± 0.5
333.15 K	754 ± 0.2	759.3 ± 0.3	764.3 ± 0.3	769.1 ± 0.3	773.6 ± 0.3	777.8 ± 0.4	781.9 ± 0.4	785.8 ± 0.4	789.5 ± 0.5	793.1 ± 0.5
343.15 K	744.5 ± 0.2	750.1 ± 0.3	755.5 ± 0.3	760.5 ± 0.3	765.3 ± 0.4	769.8 ± 0.4	774 ± 0.4	778.1 ± 0.4	782 ± 0.5	785.7 ± 0.5
353.15 K	–	740.6 ± 0.3	746.4 ± 0.3	751.7 ± 0.3	756.7 ± 0.4	761.5 ± 0.4	766 ± 0.4	770.2 ± 0.4	774.3 ± 0.5	778.2 ± 0.5
